Results published in patent US20230416232A1, “PYRIMIDINE COMPOUNDS, COMPOSITIONS, AND MEDICINAL APPLICATIONS THEREOF” (Blueprint Medicines Corporation, priority 2020, published 2023).

What was measured:
Format in all cases: cell-based
[1] = target: EGFR(D770_N771insSVD) expressing Ba/F3 stable cell line (Homo sapiens, UniProt P00533, DUP768-770, cells depend on it); assay: Cellular proliferation (Alamar Blue) assay, EGFR(D770_N771insSVD) Ba/F3; settings: 72 hr, read-out: D770 IC50
Method: (§1) Cell line details: • 1. EGFR(D770_N771insSVD) expressing Ba/F3 stable cell line • 2. EGFR (A767_dupASV) expressing Ba/F3 stable cell line • 3. A431 cells • 4. EGFR (H773insNPH) expressing Ba/F3 stable cell line • 5. HER2 (A775_G776insYVMA) expressing Ba/F3 stable cell line
(§2) • 1. Seed cells at 5000 for A431 and 15,000 cells for Ba/F3 in 100 μL/well in complete media (for A431: DMEM with 10% FBS and for Ba/F3 cells: RPMI with 10% FBS) in 96-well tissue culture plate. Leave outer wells without cells for background measurements. Incubate at 37 degree Celsius in 5% CO2 humidified incubator for 16-18 hours. • 2. Add 0.025 ml of 5X concentration compound dilution or DMSO control. Final compound concentration range is 10-0.0005 μM prepared in 3-fold serial dilutions. Incubate for 72 hr at 37 degree Celsius in 5% CO2 humidified incubator. • 3. Add 0.0125 ml Alamar Blue™ reagent to each well with multi-channel pipette and tap gently on each side of the plate to mix. Incubate for 3 hours at 37 degree Celsius in 5% CO2 humidified incubator. • 4. […] Data analysis was performed using XLfit 5.5.0.5.

[2] = target: EGFR (A767_dupASV) expressing Ba/F3 stable cell line (Homo sapiens, UniProt P00533, DUP767-769, cells depend on it); assay: Cellular proliferation (Alamar Blue) assay, EGFR (A767_dupASV) Ba/F3; settings: 72 hr, read-out: A767 IC50
Chain of EGFR (A767_dupASV) expressing Ba/F3 stable cell line (P00533 with tags, fused parts or gaps DUP767-769): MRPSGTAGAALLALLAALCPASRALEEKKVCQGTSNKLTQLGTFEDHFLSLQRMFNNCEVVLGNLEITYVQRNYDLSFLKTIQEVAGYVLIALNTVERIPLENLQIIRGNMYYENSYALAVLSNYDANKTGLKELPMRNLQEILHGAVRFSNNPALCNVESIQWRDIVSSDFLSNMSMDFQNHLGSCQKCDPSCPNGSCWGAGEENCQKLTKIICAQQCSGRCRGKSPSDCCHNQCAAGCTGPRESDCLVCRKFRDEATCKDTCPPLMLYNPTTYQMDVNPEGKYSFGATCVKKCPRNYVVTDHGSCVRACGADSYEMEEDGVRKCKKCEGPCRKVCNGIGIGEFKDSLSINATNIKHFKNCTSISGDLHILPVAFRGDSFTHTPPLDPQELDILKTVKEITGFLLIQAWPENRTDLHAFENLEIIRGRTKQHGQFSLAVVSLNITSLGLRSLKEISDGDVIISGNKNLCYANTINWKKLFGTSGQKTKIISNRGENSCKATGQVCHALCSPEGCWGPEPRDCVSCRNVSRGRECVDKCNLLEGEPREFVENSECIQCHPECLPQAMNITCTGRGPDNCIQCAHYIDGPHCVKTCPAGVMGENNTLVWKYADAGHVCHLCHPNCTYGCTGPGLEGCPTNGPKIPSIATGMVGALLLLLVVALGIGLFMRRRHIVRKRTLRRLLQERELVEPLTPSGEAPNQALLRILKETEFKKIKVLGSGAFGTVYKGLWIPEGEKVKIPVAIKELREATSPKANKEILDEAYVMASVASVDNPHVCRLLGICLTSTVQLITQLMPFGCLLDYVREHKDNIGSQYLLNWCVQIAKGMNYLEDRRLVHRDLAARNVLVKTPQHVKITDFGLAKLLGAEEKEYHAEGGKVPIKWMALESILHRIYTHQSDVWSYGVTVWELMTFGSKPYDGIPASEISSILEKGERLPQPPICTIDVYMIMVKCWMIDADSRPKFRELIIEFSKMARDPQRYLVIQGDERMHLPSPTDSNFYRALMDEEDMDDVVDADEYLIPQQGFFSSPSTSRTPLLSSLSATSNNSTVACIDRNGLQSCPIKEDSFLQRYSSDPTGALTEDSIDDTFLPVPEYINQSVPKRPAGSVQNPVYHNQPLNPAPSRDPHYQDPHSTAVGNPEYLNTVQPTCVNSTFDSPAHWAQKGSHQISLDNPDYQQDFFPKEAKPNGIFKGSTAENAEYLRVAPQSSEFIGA
Method: as §1, §2

[3] = tested on: A431 cells; assay: Cellular proliferation (Alamar Blue) assay, A431 cells; settings: Homo sapiens, A-431, 72 h, A431 cells; 72 hr; Alamar Blue; read-out: A431 IC50
Method: as §2

[4] = target: HER2 (A775_G776insYVMA) expressing Ba/F3 stable cell line (Homo sapiens, UniProt P04626, DUP772-775, cells depend on it); assay: Cellular proliferation (Alamar Blue) assay, HER2 (A775_G776insYVMA) Ba/F3; settings: HER2 (A775_G776insYVMA) Ba/F3 cells; 72 hr; Alamar Blue; read-out: YVMA IC50
Chain of HER2 (A775_G776insYVMA) expressing Ba/F3 stable cell line (P04626 with tags, fused parts or gaps DUP772-775): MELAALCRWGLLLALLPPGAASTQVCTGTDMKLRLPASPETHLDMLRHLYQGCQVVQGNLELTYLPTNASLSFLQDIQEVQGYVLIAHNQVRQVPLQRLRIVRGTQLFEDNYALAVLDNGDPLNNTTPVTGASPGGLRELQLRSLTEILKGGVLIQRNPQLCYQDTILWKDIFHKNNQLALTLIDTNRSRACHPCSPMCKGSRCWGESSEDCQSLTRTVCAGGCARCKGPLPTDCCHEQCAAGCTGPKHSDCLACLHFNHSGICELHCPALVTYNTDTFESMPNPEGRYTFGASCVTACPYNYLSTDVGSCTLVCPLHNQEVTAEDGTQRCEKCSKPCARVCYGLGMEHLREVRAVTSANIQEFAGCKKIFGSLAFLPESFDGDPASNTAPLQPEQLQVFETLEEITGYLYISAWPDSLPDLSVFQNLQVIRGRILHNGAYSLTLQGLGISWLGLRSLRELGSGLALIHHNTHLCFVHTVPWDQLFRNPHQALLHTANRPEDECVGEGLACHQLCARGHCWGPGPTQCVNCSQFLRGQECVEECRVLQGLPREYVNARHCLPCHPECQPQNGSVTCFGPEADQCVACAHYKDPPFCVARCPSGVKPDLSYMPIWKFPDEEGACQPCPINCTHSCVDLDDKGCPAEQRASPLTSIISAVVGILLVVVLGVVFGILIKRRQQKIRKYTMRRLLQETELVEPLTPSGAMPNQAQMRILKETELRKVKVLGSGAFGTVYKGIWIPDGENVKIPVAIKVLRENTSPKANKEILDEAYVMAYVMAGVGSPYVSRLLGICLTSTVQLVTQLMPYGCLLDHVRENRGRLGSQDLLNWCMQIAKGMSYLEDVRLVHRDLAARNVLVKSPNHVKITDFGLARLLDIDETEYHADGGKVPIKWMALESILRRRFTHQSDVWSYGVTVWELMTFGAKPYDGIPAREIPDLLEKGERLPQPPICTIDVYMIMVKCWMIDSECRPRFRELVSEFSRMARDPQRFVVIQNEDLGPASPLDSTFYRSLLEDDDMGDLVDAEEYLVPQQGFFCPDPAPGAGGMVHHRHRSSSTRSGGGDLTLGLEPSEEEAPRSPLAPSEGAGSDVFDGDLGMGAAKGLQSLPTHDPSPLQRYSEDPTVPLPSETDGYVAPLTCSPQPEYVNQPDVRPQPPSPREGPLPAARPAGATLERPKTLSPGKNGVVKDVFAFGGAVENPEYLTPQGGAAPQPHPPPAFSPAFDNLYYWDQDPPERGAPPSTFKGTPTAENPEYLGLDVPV
Method: as §1, §2

Chain of EGFR(D770_N771insSVD) expressing Ba/F3 stable cell line (P00533 with tags, fused parts or gaps DUP768-770): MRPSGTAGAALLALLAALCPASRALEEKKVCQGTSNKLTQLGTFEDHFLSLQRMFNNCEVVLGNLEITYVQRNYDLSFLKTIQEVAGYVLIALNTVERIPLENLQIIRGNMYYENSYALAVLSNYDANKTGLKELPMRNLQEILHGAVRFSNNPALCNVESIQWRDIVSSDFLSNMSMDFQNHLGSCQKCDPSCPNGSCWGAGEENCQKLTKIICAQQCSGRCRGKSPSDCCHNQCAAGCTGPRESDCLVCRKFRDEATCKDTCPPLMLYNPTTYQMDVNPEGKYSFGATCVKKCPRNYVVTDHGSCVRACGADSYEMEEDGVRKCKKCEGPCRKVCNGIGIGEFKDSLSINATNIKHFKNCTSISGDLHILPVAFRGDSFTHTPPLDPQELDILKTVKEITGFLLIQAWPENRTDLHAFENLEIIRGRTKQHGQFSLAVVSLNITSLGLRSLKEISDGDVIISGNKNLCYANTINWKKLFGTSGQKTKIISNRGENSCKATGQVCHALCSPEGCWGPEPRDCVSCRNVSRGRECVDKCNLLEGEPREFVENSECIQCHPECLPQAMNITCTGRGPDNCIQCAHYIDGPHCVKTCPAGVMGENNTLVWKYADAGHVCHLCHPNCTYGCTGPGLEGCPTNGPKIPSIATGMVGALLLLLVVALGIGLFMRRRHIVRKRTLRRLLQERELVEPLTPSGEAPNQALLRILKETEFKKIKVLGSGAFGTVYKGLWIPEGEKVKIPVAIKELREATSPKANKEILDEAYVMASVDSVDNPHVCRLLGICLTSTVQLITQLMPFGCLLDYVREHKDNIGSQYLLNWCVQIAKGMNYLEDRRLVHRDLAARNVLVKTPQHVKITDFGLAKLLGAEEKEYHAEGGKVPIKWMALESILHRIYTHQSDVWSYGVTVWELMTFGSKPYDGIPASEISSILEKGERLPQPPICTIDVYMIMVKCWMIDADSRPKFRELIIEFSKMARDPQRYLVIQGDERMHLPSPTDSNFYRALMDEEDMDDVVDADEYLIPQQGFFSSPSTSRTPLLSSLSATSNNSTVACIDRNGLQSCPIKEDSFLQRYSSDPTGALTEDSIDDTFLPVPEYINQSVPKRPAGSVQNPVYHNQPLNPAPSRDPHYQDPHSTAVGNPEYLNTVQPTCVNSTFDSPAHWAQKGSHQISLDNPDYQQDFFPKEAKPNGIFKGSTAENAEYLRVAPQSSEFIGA

Row | GI50 [1] | GI50 [2] | IC50 [3] | GI50 [4] | SMILES
1 | 3.27 µM | 3.09 µM | > 10 µM | 0.884 µM | C=CC(=O)Nc1ccc(F)c(Nc2nc(Nc3cnn(C)c3)ncc2-c2c(F)cccc2OC)c1 [Compound 63, N-(4-fluoro-3-((5-(2-fluoro-6-methoxyphenyl)-2-((1-methyl-1H-pyrazol-4-yl)amino)pyrimidin-4-yl)amino)phenyl)acrylamide]
2 | 0.095 µM | 0.043 µM | 0.054 µM | 0.171 µM | C=CC(=O)Nc1ccc(F)c(Nc2nc(Nc3cnn(C)c3)ncc2-c2ccc(N3CCC3)c(F)c2)c1 [Compound 80, N-(3-((5-(4-(azetidin-1-yl)-3-fluorophenyl)-2-((1-methyl-1H-pyrazol-4-yl)amino)pyrimidin-4-yl)amino)-4-fluorophenyl)acrylamide]
3 | 0.313 µM | 0.239 µM | 0.397 µM | 0.149 µM | C=CC(=O)Nc1ccc(F)c(Nc2nc(Nc3cnn(CCN(C)C)c3)ncc2-c2ccc(N3CCCCC3)c(F)c2)c1 [Compound 82, N-(3-((2-((1-(2-(dimethylamino)ethyl)-1H-pyrazol-4-yl)amino)-5-(3-fluoro-4-(piperidin-1-yl)phenyl)pyrimidin-4-yl)amino)-4-fluorophenyl)acrylamide]
4 | 0.314 µM | 0.268 µM | 2.82 µM | 0.884 µM | C=CC(=O)Nc1ccc(F)c(Nc2nc(Nc3cnn(C)c3)ncc2-c2ccc(N3CCCCCC3)c(F)c2)c1 [Compound 85, N-(3-((5-(4-(azepan-1-yl)-3-fluorophenyl)-2-((1-methyl-1H-pyrazol-4-yl)amino)pyrimidin-4-yl)amino)-4-fluorophenyl)acrylamide]
5 | 0.015 µM | 0.031 µM | 0.011 µM | 0.059 µM | C=CC(=O)Nc1ccc(F)c(Nc2nc(Nc3cnn(C)c3)ncc2-c2cc(F)c(Br)c(F)c2)c1 [Compound 91, N-(3-((5-(4-bromo-3,5-difluorophenyl)-2-((1-methyl-1H-pyrazol-4-yl)amino)pyrimidin-4-yl)amino)-4-fluorophenyl)acrylamide]
6 | 0.035 µM | 0.046 µM | 0.033 µM | 0.173 µM | C=CC(=O)Nc1ccc(F)c(Nc2nc(Nc3cnn(C4CCOC4)c3)ncc2-c2ccc(Br)c(F)c2)c1 (stereo not drawn) [Compound 93, N-(3-((5-(4-bromo-3-fluorophenyl)-2-((1-(tetrahydrofuran-3-yl)-1H-pyrazol-4-yl)amino)pyrimidin-4-yl)amino)-4-fluorophenyl)acrylamide]
7 | 0.029 µM | 0.043 µM | 4.77 µM | 0.197 µM | C=CC(=O)Nc1ccc(F)c(Nc2nc(Nc3cnn(CCOC)c3)ncc2-c2ccc(Br)c(F)c2)c1 [Compound 95, N-(3-((5-(4-bromo-3-fluorophenyl)-2-((1-(2-methoxyethyl)-1H-pyrazol-4-yl)amino)pyrimidin-4-yl)amino)-4-fluorophenyl)acrylamide]
8 | 0.013 µM | 0.024 µM | 0.012 µM | 0.062 µM | C=CC(=O)Nc1cc(F)cc(Nc2nc(Nc3cnn(C)c3)ncc2-c2ccc(Br)c(F)c2)c1 [Compound 97, N-(3-((5-(4-bromo-3-fluorophenyl)-2-((1-methyl-1H-pyrazol-4-yl)amino)pyrimidin-4-yl)amino)-5-fluorophenyl)acrylamide]
9 | 0.274 µM | 0.301 µM | 1.2 µM | 0.86 µM | C=CC(=O)Nc1ccc(F)c(Nc2nc(Nc3cnn(CCOC)c3)ncc2-c2ccc(F)c(Cl)c2)c1 [Compound 100, N-(3-((5-(3-chloro-4-fluorophenyl)-2-((1-(2-methoxyethyl)-1H-pyrazol-4-yl)amino)pyrimidin-4-yl)amino)-4-fluorophenyl)acrylamide]
10 | 0.035 µM | 0.03 µM | 0.069 µM | 0.117 µM | [2H]C([2H])=CC(=O)Nc1ccc(F)c(Nc2nc(Nc3cnn(C)c3)ncc2-c2ccc(Br)c(F)c2)c1 [Compound 102, N-(3-((5-(4-bromo-3-fluorophenyl)-2-((1-methyl-1H-pyrazol-4-yl)amino)pyrimidin-4-yl)amino)-4-fluorophenyl)acrylamide-3,3-d2]
11 | 0.034 µM | 0.044 µM | 0.017 µM | 0.064 µM | C=CC(=O)Nc1ccc(F)c(Nc2nc(Nc3cn(C)nc3Cl)ncc2-c2cc(F)cc(F)c2)c1 [Compound 104, N-(3-((2-((3-chloro-1-methyl-1H-pyrazol-4-yl)amino)-5-(3,5-difluorophenyl)pyrimidin-4-yl)amino)-4-fluorophenyl)acrylamide]
12 | 0.129 µM | 0.663 µM | 0.085 µM | 0.125 µM | CN(C)C/C=C/C(=O)Nc1ccc(F)c(Nc2nc(Nc3cnn(C)c3)ncc2-c2ccc(Br)c(F)c2)c1 [Compound 105, (E)-N-(3-((5-(4-bromo-3-fluorophenyl)-2-((1-methyl-1H-pyrazol-4-yl)amino)pyrimidin-4-yl)amino)-4-fluorophenyl)-4-(dimethylamino)but-2-enamide]
13 | 0.285 µM | 0.035 µM | 0.125 µM | 0.568 µM | C=CC(=O)Nc1ccc(F)c(Nc2nc(Nc3cn(C)nc3Cl)ncc2-c2cc(F)cc(OC)c2)c1 [Compound 106, N-(3-((2-((3-chloro-1-methyl-1H-pyrazol-4-yl)amino)-5-(3-fluoro-5-methoxyphenyl)pyrimidin-4-yl)amino)-4-fluorophenyl)acrylamide]
14 | 0.039 µM | 0.096 µM | 0.023 µM | 0.243 µM | C=CC(=O)Nc1ccc(F)c(Nc2nc(Nc3cn(C)nc3Cl)ncc2-c2cc(F)cc(C(F)F)c2)c1 [Compound 108, N-(3-((2-((3-chloro-1-methyl-1H-pyrazol-4-yl)amino)-5-(3-(difluoromethyl)-5-fluorophenyl)pyrimidin-4-yl)amino)-4-fluorophenyl)acrylamide]
15 | 0.053 µM | 0.097 µM | 0.534 µM | 0.192 µM | C=CC(=O)Nc1ccc(F)c(Nc2nc(Nc3cnn(C)c3)ncc2-c2cc(F)cc(Br)c2)c1 [Compound 109, N-(3-((5-(3-bromo-5-fluorophenyl)-2-((1-methyl-1H-pyrazol-4-yl)amino)pyrimidin-4-yl)amino)-4-fluorophenyl)acrylamide]
16 | 0.07 µM | 0.092 µM | 0.073 µM | 0.463 µM | C=CC(=O)Nc1ccc(F)c(Nc2nc(Nc3cnn(C)c3)ncc2-c2cccc(Br)c2F)c1 [Compound 113, N-(3-((5-(3-bromo-2-fluorophenyl)-2-((1-methyl-1H-pyrazol-4-yl)amino)pyrimidin-4-yl)amino)-4-fluorophenyl)acrylamide]
17 | 0.032 µM | 0.036 µM | 0.011 µM | 0.086 µM | C=CC(=O)Nc1cccc(Nc2nc(Nc3cnn(C)c3)ncc2-c2ccc(Br)c(F)c2)c1 [Compound 115, N-(3-((5-(4-bromo-3-fluorophenyl)-2-((1-methyl-1H-pyrazol-4-yl)amino)pyrimidin-4-yl)amino)phenyl)acrylamide]
18 | 0.135 µM | 0.328 µM | 0.668 µM | 0.141 µM | CN(C)C/C=C/C(=O)Nc1ccc(F)c(Nc2nc(Nc3cnn(C)c3)ncc2-c2cc(F)cc(F)c2)c1 [Compound 117, (E)-N-(3-((5-(3,5-difluorophenyl)-2-((1-methyl-1H-pyrazol-4-yl)amino)pyrimidin-4-yl)amino)-4-fluorophenyl)-4-(dimethylamino)but-2-enamide]
